e = 2'-O-(2-methoxyethyl) (MOE); d = 2'-deoxy (DNA)
Tests used:
ob/ob mice = experiment: ob/ob mice: plasma parameters, food consumption, marker gene mRNA; format: in vivo, mouse; conditions: ob/ob mice, 25 mg/kg s.c. two times per week, 6 weeks
Procedure, shortened: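 Male C57Bl/6J ob/ob mice received oligomeric compound or control at 25 mg/kg s.c. twice weekly, for 4 weeks on a 10-15% fat diet or for 6 weeks on high-fat diet. Plasma glucose and insulin were measured at 0, 2 and 4 weeks; i.p. glucose/insulin tolerance tests were run; serum lipids, liver triglycerides and histology were assessed, with liver, BAT and WAT mRNA quantified by real-time PCR.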

IL-6 mRNA = IL-6 mRNA in LPS-activated primary murine macrophages; format: cell-based, mouse; conditions: average of 3 treatments
Procedure, shortened: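 Thioglycollate-elicited peritoneal macrophages from female C57Bl/6 mice, transfected with miRNA-targeting oligomeric compounds via FuGENE 6 (1 μL per 100 nM compound) for ~24–28 h at 37 °C, optionally primed 4 h with 100 ng/mL IFN-gamma, then stimulated 24 h with 100 ng/mL LPS. IL-6 mRNA quantified by real-time PCR.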

Substance | plasma glucose levels (fed) (ob/ob mice) | IL-6 mRNA expression, % UTC (IL-6 mRNA; 75 nM, +IFN) | IL-6 mRNA expression, % UTC (IL-6 mRNA; 75 nM, −IFN) | IL-6 mRNA expression, % UTC (IL-6 mRNA; 150 nM, +IFN) | IL-6 mRNA expression, % UTC (IL-6 mRNA; 150 nM, −IFN) | IL-6 mRNA expression, % UTC (IL-6 mRNA; 300 nM, +IFN) | IL-6 mRNA expression, % UTC (IL-6 mRNA; 300 nM, −IFN) | IL-6 mRNA expression, % UTC (IL-6 mRNA; 600 nM, +IFN) | IL-6 mRNA expression, % UTC (IL-6 mRNA; 600 nM, −IFN)
CTAGTGGTCCTAAACATTTCAC (chemistry not given here) [ISIS 327878, uniform 2′-MOE PS; targets mir-203] | reduced beginning at approximately four weeks after the start of treatment |  |  |  |  |  |  |  | 
129690 (antisense TTAGAATACGTCGCGTTATG; sugars from the 5' end e5 d10 e5, all phosphorothioate, methylation of C not given here) [compound 129690] |  | 92 % UTC | 98 % UTC | 86 % UTC | 99 % UTC | 94 % UTC | 109 % UTC | 203 % UTC | 258 % UTC
